Assay results taken from ChEMBL document CHEMBL1201862, “PubChem BioAssay data set” (2004).
The source made the active and inactive calls.

What was measured:
[1] = molecular target: T1, Sentrin-specific protease 6 (Homo sapiens, UniProt Q9GZR1); assay: SAR Analysis of small molecule inhibitors of Sentrin-specific protease 6 (SENP6) using a Luminescent assay. [Related pubchem assays (depositor defined):AID2582, AID2599]; format: functional
T1 sequence (Q9GZR1 whole entry): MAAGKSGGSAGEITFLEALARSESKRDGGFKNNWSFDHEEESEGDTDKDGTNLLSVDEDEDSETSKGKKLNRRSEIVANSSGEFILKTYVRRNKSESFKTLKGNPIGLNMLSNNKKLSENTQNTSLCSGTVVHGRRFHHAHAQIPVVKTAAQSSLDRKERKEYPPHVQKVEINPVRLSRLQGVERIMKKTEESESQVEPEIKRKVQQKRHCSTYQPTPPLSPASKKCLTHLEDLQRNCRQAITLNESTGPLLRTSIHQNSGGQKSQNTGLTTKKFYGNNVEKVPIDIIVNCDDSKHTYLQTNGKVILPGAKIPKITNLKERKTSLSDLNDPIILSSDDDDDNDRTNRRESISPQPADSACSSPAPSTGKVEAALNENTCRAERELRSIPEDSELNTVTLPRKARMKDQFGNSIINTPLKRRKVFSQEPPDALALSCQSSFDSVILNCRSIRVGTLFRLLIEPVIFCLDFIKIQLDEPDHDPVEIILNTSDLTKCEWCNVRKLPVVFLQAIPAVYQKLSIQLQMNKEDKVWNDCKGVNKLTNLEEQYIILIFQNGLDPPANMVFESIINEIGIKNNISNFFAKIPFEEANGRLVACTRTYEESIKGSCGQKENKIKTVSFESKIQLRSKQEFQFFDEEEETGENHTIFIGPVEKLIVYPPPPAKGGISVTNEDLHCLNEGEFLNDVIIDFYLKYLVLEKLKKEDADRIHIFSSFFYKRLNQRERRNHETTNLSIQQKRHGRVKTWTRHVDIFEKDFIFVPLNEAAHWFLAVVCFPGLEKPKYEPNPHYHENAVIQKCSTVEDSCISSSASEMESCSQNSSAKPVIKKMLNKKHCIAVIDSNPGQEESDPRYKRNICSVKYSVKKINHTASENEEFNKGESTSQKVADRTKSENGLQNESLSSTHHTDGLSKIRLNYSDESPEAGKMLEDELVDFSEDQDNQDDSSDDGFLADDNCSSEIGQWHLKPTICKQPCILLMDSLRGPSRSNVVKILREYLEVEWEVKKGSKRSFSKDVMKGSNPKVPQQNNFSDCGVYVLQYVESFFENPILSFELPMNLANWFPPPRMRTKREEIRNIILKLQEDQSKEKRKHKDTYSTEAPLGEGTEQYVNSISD

Caspase-3 = molecular target: T2, Caspase-3 (Homo sapiens, UniProt P42574); assay: SAR Analysis of small molecule inhibitors of Sentrin-specific proteases (SENPs) using a Caspase-3 Selectivity assay. [Related pubchem assays (depositor defined):AID2540, AID2599, AID434973, AID489001]; format: functional
T2 sequence (P42574 whole entry): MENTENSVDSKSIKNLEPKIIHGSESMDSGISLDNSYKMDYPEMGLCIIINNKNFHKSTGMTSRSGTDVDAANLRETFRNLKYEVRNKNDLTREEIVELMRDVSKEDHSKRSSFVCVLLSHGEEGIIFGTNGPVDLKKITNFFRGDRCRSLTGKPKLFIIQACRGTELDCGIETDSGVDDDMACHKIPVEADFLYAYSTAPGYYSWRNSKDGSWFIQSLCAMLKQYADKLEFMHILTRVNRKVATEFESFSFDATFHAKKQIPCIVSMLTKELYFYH

[2] = molecular target: T3, Sentrin-specific protease 7 (Homo sapiens, UniProt Q9BQF6); assay: SENP7 protease inhibitors, SAR follow-up, biochemical, luminescence (AID 504497); format: functional
T3 sequence (Q9BQF6 whole entry): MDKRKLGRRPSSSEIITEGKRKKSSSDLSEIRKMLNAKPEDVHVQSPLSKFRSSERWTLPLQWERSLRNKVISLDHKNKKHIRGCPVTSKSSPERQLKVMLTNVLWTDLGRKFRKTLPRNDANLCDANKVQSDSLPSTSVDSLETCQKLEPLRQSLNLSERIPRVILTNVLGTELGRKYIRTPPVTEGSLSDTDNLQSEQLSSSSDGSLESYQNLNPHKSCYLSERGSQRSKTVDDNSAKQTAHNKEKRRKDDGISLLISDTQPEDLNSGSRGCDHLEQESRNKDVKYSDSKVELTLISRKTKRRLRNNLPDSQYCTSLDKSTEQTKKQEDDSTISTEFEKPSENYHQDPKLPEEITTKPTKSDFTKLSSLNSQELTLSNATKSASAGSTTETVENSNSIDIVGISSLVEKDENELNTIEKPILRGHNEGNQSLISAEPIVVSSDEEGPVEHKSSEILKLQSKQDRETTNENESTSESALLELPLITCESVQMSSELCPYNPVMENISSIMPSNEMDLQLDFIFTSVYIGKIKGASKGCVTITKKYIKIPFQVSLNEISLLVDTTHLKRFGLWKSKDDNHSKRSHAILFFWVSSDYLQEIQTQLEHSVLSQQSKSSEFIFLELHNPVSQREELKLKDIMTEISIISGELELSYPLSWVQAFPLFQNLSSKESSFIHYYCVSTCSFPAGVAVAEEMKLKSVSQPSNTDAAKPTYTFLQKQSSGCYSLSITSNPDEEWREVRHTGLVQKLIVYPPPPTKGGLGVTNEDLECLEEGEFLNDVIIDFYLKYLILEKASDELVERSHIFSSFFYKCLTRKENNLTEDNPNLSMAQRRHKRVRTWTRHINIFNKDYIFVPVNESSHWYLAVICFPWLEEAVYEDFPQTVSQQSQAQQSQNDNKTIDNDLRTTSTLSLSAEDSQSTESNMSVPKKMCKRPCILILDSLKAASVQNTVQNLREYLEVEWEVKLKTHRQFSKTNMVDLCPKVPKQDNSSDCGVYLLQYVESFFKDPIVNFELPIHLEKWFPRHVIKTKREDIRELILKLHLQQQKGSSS

[3] = molecular target: T4, Sentrin-specific protease 8 (Homo sapiens, UniProt Q96LD8); assay: SENP8 protease inhibitors, SAR follow-up, biochemical, luminescence (AID 504501); format: functional
T4 sequence (Q96LD8 whole entry): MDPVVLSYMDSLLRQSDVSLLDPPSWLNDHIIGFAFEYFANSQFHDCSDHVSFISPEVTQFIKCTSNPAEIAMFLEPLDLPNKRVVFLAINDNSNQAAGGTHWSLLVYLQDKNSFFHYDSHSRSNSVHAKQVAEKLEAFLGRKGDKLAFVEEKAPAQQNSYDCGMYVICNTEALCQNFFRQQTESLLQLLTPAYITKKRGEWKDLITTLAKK

[4] = molecular target: T5, Ubiquitin-conjugating enzyme E2 N (Homo sapiens, UniProt P61088); format: functional
T5 sequence (P61088 whole entry): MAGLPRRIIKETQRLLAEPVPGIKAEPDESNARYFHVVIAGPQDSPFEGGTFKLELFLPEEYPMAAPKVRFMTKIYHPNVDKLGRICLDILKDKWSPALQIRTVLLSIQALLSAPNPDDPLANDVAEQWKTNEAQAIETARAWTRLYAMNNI

Streptokinase A = molecular target: T6, Streptokinase A (Streptococcus pyogenes serotype M1, UniProt P10520); assay: S. pyogenes streptokinase expression inhibitors, potency, dose response, plasminogen activation absorbance, OD405 (AID 1914); format: functional, Streptococcus pyogenes M1 GAS;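 also: secreted streptokinase activity via plasminogen activation per viability signal from cell pellet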
T6 sequence (P10520 whole entry): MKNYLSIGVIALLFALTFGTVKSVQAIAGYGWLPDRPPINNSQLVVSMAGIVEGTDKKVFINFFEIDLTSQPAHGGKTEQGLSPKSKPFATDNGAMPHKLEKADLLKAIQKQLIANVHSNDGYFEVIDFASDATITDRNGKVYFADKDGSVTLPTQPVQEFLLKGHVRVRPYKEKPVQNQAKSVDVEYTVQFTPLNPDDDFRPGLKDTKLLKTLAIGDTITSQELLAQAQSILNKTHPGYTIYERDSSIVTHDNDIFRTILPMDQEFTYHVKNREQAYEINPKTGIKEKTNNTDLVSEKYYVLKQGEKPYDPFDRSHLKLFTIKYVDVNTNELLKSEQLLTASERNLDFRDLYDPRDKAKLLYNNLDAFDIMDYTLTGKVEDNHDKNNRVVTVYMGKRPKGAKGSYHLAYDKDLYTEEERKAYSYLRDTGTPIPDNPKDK

[5] = molecular target: T7, Replicative DNA helicase DnaB (Mycobacterium tuberculosis, UniProt P9WMR3); assay: DnaB intein splicing inhibitors, dose response, biochemical, cell-free fluorescence (AID 449749); format: functional
T7 sequence (P9WMR3 whole entry): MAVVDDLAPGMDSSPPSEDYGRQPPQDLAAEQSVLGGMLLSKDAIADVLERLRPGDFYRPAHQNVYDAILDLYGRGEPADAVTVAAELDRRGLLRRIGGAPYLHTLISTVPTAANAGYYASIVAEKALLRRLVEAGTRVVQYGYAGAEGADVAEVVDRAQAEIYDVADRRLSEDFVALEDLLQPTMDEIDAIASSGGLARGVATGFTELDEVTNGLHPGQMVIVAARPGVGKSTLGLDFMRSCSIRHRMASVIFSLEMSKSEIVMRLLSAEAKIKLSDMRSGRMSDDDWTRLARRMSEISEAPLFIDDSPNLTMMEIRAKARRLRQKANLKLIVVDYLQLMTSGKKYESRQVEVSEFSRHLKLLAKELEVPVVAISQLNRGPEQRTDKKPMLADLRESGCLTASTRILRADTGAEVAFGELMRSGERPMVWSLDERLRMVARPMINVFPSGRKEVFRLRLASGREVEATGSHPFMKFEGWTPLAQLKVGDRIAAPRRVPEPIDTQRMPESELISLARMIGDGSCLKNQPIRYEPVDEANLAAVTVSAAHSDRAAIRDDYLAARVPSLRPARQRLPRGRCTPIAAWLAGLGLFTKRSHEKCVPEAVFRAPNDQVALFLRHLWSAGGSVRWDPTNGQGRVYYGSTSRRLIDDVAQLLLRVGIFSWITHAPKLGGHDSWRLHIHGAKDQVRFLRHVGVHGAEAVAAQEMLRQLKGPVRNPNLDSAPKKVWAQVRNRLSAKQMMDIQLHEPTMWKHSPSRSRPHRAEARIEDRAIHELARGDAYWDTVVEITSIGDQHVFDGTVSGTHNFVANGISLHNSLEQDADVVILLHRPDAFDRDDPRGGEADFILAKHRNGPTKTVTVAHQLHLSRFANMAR

[6] = Luminescence Cell-Based Dose Retest to Confirm Inhibitors of Cancer Stem Cells. [Related pubchem assays (depositor defined):AID2717, AID2721]; format: functional; conditions: Homo sapiens
Cysteine protease ATG4B = Cysteine protease ATG4B (Homo sapiens, UniProt Q9Y4P1); format: functional;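 also: Fluorescence-based dose-response confirmation assay measuring inhibition of ATG4B activity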
Cysteine protease ATG4B, sequence (Q9Y4P1 whole entry): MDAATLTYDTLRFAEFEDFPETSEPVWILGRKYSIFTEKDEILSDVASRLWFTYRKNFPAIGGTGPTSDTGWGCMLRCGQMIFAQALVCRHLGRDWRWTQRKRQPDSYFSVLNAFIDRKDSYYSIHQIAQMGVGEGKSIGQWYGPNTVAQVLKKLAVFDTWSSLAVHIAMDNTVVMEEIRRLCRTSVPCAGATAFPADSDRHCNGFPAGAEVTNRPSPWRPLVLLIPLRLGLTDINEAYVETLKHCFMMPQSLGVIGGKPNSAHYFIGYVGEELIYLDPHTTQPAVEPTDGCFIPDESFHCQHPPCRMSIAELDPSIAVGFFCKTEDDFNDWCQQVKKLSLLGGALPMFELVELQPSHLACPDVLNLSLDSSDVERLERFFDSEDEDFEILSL

Protein RecA = molecular target: T8, Protein RecA (Mycobacterium tuberculosis, UniProt P9WHJ3); assay: Fluorescence Cell-Free Homogeneous Dose Retest to Identify Inhibitors of RecA-Intein Splicing Activity. [Related pubchem assays (depositor defined):AID2097, AID2223, AID489010, AID492950]; format: functional
T8 sequence (P9WHJ3 whole entry): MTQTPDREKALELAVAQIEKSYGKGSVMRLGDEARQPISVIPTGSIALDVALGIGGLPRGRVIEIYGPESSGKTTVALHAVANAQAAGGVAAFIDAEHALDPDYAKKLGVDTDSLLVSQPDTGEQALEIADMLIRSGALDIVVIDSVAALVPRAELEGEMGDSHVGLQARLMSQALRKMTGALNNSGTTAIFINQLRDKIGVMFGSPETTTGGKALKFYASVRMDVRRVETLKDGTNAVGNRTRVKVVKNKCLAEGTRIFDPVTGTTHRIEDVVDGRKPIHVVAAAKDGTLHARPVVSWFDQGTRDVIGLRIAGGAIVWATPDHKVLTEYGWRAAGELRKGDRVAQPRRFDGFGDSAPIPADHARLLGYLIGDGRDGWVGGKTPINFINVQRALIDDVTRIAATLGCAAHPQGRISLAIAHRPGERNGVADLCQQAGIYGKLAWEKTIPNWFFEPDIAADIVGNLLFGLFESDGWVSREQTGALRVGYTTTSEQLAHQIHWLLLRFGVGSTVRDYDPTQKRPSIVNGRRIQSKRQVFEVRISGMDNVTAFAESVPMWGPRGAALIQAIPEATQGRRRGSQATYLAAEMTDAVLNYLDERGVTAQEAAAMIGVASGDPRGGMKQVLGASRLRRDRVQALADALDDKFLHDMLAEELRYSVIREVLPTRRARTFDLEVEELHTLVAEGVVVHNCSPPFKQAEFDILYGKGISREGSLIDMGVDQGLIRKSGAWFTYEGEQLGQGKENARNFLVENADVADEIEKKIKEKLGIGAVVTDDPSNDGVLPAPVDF

[7] = molecular target: T5, Ubiquitin-conjugating enzyme E2 N; format: functional; remark: listed apart in the source
Phospholipase A2 = Phospholipase A2 (Homo sapiens, UniProt P04054); format: functional;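 also: confirmatory dose-response counterscreen on phospholipase A2, testing hits that came from an ultra-high-throughput screen for ATG4B inhibitors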
Phospholipase A2, sequence (P04054 whole entry): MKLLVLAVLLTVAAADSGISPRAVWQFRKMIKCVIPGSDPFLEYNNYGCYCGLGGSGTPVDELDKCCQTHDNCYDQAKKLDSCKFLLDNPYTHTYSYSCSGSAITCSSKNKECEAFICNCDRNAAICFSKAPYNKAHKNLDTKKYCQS

[8] = system: Streptococcus sp. 'group A'; assay: growth inhibition of control SK(-) GAS strain, dose response, counter-screen for streptokinase expression inhibitor project, luminescence, kanamycin, BacTiterGlo, confirmation (AID 1900); format: functional, organism-based
Streptococcus = assay: Group A Streptococcus viability loss, dose response, counter-screen for streptokinase expression inhibitor project, luminescence, BacTiterGlo (AID 1915); format: functional, organism-based;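 also: potency for reduction of bacterial viability or growth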
Bcl-2-related protein A1 = molecular target: T9, Bcl-2-related protein A1 (Mus musculus, UniProt Q07440); format: functional;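 also: confirmatory dose–response counterscreen on Bfl-1, used to check hits from a UBC13 polyubiquitin inhibitor campaign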
T9 sequence (Q07440 whole entry): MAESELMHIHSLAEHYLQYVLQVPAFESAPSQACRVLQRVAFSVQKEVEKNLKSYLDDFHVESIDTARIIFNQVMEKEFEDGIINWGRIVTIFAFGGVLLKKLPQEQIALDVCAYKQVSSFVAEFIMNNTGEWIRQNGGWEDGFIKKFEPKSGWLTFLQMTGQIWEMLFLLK

SMILES | IC50 [1] | IC50 (Caspase-3) | IC50 [2] | IC50 [3] | IC50 [4] | EC50 (Streptokinase A) | AC50 [5] | AC50 [6] | IC50 (Cysteine protease ATG4B) | EC50 (Protein RecA) | IC50 [7] | IC50 (Phospholipase A2) | EC50 [8] | EC50 (Streptococcus) | IC50 (Bcl-2-related protein A1)
Cc1cc(NS(=O)(=O)c2ccc(F)c(F)c2)cc2sc(NC(=O)c3ccccc3)nc12 | > 99 µM (inactive) | > 99 µM (inactive) | 34.3 µM (active) | > 99 µM (inactive) | – | – | – | – | – | – | – | – | – | – | –
CCCCCCCCOC(=O)c1c(CSC(=N)N)n(C)c2cc(Br)c(OC(C)=O)cc12 | – | – | – | – | 4.22 µM (active) | > 150 µM (not active) | 4.36 µM (active) | 2.7 µM (active) | 8.63 µM (active) | 1.57 µM (active) | 12.4 µM (active) | 52.2 µM (inactive) | 2.05 µM (active) | 8.01 µM (active) | > 20 µM (inactive)
Cc1ccc(/C=C/c2nc(-c3ccc(NS(=O)(=O)c4cccs4)cc3)no2)cc1 | > 99 µM (inactive) | > 99 µM (inactive) | > 99 µM (inactive) | > 99 µM (inactive) | – | – | – | – | – | – | – | – | – | – | –
